Measurements published in paper PMC9588003, “TRPM8 contributes to sex dimorphism by promoting recovery of normal sensitivity in a mouse model of chronic migraine” (Nature Communications, 2022).

Molecular target: human TRPM8 (hTRPM8) (Homo sapiens, UniProt Q7Z2W7)
Assay: whole-cell patch clamp, hTRPM8-HEK293 cells; agonist dose-response
Format: cell-based

Sequence of human TRPM8 (hTRPM8) (Q7Z2W7 whole entry): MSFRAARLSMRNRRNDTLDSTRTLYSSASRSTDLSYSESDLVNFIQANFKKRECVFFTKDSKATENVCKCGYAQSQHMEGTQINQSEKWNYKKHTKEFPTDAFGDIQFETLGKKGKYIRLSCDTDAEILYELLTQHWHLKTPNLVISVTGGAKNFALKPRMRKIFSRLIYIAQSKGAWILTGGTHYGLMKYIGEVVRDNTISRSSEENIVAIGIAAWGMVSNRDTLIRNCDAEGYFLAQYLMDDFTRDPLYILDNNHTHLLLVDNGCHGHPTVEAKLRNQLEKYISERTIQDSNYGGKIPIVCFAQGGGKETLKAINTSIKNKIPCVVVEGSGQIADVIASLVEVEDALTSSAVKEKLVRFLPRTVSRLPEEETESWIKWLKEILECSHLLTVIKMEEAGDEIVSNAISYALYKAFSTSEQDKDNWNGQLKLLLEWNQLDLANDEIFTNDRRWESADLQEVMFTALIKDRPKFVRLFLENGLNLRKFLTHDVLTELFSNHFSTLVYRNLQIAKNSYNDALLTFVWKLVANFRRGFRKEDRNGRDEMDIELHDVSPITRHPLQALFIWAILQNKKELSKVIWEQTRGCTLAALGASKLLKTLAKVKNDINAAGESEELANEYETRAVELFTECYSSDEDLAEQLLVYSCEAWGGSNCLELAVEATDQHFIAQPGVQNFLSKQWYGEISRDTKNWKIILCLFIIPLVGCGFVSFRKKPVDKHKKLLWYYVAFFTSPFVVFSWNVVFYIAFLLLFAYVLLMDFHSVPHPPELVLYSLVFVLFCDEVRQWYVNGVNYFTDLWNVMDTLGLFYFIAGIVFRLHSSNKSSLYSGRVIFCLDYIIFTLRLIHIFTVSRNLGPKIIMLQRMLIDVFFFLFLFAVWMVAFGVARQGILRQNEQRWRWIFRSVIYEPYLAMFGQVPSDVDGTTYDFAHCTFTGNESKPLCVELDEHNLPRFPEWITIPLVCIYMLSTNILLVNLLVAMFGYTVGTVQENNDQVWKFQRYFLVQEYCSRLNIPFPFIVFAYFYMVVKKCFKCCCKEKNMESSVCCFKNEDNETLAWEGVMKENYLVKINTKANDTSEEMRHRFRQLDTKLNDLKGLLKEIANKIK

## COc1ccc(NC(=O)[C@@H]2C[C@H](C)CC[C@H]2C(C)C)cc1 [WS12, (1R,2S,5R)−2-Isopropyl-N-(4-methoxyphenyl)−5-methylcyclohexanecarboxamide]
  EC50: 500 nM
